Source: ChEMBL document CHEMBL1122784, “Antitumor imidazotetrazines. 1. Synthesis and chemistry of 8-carbamoyl-3-(2-chloroethyl)imidazo[5,1-d]-1,2,3,5-tetrazin-4(3 H)-one , a novel broad-spectrum antitumor agent” (J Med Chem, 1984)

Columns and labels:
[1] = system: Mus musculus; test: Compound was evaluated for %T/C in L1210 leukemia implanted BDF1 mice on day 0 after ip administration of 5 mg/kg/day on day 1; format: functional; settings: route intraperitoneal
[2] = system: Mus musculus; test: Compound was evaluated for %T/C in L1210 leukemia implanted BDF1 mice on day 0 after ip administration of 20 mg/kg/day on day 1; format: functional; settings: route intraperitoneal

NC(=O)c1ncn2c(=O)n(CCCl)nnc12 [MITOZOLOMIDE]
T/C [1]: 111% | T/C [2]: 198%
